Results as given in ChEMBL document CHEMBL5291721, “A preclinical secondary pharmacology resource illuminates target-adverse drug reaction associations of marketed drugs” (Nat Commun, 2023).

Legend:
[1] = molecular target: T1, Alpha-2A adrenergic receptor (Homo sapiens, UniProt P08913)
T1 sequence (P08913 whole entry): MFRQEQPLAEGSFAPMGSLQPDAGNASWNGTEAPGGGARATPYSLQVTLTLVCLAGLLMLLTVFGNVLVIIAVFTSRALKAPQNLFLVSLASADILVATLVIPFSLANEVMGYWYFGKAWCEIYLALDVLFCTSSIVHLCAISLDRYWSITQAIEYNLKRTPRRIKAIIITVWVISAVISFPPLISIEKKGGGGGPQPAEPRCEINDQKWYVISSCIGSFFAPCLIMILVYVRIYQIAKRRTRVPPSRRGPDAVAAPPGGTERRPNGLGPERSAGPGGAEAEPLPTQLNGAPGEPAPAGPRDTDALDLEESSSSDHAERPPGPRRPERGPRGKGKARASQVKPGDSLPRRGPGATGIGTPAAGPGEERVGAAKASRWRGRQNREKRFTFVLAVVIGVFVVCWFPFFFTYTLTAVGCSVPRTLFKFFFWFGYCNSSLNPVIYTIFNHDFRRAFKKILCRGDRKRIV

[2] = molecular target: T2, Muscarinic acetylcholine receptor M2 (Homo sapiens, UniProt P08172)
T2 sequence (P08172 whole entry): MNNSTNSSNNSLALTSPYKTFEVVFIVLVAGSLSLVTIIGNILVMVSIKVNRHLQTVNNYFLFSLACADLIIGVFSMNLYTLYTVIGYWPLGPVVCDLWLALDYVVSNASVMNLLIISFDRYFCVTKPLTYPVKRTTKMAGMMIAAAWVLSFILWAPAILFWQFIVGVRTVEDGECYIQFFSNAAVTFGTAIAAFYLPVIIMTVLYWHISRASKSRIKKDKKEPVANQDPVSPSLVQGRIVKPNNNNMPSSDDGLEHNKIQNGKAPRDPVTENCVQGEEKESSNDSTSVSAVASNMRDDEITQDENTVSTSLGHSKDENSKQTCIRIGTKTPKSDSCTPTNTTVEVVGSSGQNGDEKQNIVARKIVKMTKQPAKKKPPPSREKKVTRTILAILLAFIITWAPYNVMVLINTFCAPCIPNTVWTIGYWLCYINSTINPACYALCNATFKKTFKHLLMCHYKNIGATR

D(3) dopamine receptor = D(3) dopamine receptor (Homo sapiens, UniProt P35462)
Prothrombin = Prothrombin (Homo sapiens, UniProt P00734); assay type: functional
Histamine H3 receptor = Histamine H3 receptor (Homo sapiens, UniProt Q9Y5N1)
[3] = molecular target: Vascular endothelial growth factor receptor 2 (Homo sapiens, UniProt P35968); assay type: functional
[4] = molecular target: cGMP-inhibited 3',5'-cyclic phosphodiesterase 3A (Homo sapiens, UniProt Q14432); assay type: functional
[5] = molecular target: T3, Prostaglandin G/H synthase 1 (Homo sapiens, UniProt P23219); assay type: functional
[6] = molecular target: T3, Prostaglandin G/H synthase 1; assay type: functional; remark: listed apart in the source
[7] = molecular target: T1, Alpha-2A adrenergic receptor; assay type: functional, cell-based
[8] = molecular target: T4, Alpha-1A adrenergic receptor (Homo sapiens, UniProt P35348); assay type: functional, cell-based
T4 sequence (P35348 whole entry): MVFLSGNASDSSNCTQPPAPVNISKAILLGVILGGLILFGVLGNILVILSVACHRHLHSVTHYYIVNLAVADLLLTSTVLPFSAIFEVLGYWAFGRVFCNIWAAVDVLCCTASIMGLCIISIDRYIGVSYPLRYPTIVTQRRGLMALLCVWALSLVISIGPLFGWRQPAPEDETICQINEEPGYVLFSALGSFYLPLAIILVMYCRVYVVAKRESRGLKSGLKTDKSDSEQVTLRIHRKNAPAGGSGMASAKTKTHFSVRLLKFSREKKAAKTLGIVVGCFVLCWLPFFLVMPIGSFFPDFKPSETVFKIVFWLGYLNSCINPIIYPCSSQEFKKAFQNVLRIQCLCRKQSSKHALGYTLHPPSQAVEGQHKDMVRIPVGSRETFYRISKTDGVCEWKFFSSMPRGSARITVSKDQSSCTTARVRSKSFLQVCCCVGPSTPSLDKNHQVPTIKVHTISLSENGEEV

[9] = molecular target: Beta-2 adrenergic receptor (Homo sapiens, UniProt P07550)
Cannabinoid receptor 1 = Cannabinoid receptor 1 (Homo sapiens, UniProt P21554)
Melanocortin receptor 4 = Melanocortin receptor 4 (Homo sapiens, UniProt P32245)
Glucocorticoid receptor = molecular target: T5, Glucocorticoid receptor (Homo sapiens, UniProt P04150)
T5 sequence (P04150 whole entry): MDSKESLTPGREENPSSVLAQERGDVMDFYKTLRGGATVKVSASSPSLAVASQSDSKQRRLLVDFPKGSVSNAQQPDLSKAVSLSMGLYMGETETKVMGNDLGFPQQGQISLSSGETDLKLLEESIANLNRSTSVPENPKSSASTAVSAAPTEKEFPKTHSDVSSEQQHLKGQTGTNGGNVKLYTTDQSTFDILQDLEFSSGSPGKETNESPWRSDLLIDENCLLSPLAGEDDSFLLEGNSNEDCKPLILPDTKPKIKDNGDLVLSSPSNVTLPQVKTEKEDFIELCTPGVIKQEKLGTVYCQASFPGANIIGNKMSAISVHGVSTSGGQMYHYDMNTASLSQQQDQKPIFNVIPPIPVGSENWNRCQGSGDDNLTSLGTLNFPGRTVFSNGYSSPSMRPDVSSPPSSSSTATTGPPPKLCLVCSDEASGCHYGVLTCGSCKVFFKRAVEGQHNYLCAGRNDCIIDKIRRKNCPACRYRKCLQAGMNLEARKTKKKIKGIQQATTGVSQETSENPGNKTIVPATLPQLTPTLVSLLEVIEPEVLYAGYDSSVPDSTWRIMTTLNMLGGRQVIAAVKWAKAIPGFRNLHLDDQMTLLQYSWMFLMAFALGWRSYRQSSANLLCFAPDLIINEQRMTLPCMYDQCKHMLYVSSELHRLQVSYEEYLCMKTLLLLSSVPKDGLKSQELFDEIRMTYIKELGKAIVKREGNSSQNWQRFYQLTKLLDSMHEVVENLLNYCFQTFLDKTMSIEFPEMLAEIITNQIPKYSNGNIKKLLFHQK
Also: assay procedure not described here.

D(3) dopamine receptor, sequence (P35462 whole entry): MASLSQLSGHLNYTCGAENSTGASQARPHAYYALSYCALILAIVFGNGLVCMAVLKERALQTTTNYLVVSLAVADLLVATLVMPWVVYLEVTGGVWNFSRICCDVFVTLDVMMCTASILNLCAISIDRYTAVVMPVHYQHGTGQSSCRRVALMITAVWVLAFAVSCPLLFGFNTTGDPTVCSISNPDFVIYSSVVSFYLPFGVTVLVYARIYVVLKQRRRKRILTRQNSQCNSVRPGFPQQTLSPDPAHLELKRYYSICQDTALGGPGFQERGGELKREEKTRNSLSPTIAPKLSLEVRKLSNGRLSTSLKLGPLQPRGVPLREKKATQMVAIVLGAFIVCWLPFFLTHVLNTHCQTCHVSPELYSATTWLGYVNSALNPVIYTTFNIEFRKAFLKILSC
T3 sequence (P23219 whole entry): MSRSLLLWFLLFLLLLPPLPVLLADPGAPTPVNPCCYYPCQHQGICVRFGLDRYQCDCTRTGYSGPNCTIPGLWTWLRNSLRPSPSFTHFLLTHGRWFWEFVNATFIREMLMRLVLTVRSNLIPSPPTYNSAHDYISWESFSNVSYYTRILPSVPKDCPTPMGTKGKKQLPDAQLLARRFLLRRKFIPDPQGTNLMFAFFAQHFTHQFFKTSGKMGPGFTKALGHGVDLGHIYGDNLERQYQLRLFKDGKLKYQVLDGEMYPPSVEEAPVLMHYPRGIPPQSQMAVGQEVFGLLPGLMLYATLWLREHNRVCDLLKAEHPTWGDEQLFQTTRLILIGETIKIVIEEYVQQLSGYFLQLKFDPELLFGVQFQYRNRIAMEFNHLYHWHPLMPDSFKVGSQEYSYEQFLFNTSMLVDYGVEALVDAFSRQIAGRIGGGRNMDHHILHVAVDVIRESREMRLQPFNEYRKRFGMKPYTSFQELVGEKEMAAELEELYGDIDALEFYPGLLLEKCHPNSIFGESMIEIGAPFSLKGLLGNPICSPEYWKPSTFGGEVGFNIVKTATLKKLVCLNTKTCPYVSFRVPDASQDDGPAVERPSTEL
cGMP-inhibited 3',5'-cyclic phosphodiesterase 3A, sequence (Q14432 whole entry): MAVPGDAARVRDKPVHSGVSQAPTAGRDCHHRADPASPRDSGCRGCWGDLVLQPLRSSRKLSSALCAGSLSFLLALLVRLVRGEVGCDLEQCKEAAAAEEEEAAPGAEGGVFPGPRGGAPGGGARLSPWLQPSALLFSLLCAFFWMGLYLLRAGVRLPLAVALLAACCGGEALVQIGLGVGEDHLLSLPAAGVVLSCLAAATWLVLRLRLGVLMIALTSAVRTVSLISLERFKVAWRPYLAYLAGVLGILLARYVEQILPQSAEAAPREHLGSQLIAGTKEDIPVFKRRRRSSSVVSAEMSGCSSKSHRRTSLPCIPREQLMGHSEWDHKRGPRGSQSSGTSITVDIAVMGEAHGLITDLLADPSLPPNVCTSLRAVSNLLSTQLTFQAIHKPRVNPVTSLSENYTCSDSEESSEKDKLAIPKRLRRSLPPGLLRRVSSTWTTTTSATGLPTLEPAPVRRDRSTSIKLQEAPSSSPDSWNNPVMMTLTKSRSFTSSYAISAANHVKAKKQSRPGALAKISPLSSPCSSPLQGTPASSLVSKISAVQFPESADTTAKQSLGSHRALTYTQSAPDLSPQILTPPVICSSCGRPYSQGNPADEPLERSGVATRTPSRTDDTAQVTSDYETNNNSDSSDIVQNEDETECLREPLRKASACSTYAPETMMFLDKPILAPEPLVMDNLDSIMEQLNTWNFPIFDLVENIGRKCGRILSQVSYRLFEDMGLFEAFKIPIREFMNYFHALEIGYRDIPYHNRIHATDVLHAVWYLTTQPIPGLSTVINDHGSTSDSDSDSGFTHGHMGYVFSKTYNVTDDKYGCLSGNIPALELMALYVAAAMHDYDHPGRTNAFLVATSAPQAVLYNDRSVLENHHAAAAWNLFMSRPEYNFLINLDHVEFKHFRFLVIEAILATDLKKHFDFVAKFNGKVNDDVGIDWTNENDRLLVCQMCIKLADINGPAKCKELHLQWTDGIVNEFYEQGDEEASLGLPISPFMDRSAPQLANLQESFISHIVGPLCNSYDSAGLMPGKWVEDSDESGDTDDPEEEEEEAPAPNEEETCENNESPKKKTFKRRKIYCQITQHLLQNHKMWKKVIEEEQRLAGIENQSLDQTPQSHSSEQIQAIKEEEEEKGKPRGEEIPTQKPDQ
Vascular endothelial growth factor receptor 2, sequence (P35968 whole entry): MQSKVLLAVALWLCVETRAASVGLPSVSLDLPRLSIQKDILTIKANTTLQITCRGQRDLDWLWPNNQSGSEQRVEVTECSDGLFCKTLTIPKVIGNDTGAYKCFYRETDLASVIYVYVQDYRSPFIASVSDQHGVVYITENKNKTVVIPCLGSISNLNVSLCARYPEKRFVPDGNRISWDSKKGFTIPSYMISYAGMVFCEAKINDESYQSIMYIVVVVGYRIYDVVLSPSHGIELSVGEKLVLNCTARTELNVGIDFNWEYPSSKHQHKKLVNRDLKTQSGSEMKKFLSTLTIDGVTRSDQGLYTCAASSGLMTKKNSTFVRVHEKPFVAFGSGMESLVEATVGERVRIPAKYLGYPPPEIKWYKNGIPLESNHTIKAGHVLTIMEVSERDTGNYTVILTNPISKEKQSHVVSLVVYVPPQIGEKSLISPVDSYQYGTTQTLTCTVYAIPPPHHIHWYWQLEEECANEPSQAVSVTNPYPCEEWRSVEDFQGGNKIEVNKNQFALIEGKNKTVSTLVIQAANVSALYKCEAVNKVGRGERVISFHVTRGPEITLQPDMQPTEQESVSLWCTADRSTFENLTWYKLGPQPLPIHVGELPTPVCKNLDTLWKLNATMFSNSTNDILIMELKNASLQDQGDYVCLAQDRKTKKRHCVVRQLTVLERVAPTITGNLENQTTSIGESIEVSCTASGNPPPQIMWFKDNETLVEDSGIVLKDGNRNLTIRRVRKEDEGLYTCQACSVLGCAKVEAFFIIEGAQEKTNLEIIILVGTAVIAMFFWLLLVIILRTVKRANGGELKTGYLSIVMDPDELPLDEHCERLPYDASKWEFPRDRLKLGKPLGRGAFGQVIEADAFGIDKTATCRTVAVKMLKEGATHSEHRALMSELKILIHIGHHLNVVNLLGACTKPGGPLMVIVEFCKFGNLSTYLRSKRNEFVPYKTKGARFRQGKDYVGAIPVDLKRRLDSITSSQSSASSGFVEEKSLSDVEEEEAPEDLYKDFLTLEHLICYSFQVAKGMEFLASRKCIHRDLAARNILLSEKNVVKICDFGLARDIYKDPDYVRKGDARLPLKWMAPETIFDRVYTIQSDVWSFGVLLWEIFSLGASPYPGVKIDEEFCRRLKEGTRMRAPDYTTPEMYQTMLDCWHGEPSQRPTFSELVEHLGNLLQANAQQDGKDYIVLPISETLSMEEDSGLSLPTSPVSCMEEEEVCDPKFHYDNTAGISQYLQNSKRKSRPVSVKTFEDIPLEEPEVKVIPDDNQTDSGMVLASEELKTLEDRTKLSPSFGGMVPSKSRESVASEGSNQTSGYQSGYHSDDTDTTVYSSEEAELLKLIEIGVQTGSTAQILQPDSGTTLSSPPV
Histamine H3 receptor, sequence (Q9Y5N1 whole entry): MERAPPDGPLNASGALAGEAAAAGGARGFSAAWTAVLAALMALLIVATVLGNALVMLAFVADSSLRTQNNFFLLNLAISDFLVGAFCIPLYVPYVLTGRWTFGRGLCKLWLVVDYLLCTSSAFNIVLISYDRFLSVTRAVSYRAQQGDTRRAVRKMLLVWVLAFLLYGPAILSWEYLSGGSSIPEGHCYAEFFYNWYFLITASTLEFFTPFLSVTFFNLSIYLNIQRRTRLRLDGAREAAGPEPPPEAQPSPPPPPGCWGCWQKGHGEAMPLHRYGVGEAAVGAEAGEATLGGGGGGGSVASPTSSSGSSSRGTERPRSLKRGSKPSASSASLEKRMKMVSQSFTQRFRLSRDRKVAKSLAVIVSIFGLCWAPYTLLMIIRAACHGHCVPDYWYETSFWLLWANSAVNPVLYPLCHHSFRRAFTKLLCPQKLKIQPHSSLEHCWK
Melanocortin receptor 4, sequence (P32245 whole entry): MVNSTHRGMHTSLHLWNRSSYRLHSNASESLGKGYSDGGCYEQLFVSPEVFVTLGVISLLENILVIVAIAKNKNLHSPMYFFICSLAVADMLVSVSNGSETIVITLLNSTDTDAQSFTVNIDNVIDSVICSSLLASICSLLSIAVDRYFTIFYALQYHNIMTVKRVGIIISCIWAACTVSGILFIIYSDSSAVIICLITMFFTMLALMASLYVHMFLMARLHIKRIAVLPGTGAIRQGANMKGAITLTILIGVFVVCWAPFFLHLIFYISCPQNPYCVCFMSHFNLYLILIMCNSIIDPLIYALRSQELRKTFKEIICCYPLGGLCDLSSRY
Cannabinoid receptor 1, sequence (P21554 whole entry): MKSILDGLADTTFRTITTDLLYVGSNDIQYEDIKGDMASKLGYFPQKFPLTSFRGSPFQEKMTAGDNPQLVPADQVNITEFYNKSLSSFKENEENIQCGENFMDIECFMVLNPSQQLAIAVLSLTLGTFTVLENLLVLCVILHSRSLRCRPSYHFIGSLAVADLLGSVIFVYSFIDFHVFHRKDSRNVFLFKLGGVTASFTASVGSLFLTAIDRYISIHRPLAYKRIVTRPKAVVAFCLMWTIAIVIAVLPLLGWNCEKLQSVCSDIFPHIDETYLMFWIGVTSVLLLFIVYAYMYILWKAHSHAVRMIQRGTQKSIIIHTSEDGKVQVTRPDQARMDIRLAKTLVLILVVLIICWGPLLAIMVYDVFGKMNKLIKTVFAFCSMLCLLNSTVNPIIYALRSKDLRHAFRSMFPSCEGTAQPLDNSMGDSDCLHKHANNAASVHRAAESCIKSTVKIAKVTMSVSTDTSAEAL

| Compound | AC50 [1] [µM] | AC50 [2] [µM] | AC50 (D(3) dopamine receptor) [µM] | AC50 (Prothrombin) [µM] | AC50 (Histamine H3 receptor) [µM] | AC50 [3] [µM] | AC50 [4] [µM] | AC50 [5] [µM] | AC50 [6] [µM] | AC50 [7] [µM] | AC50 [8] [µM] | AC50 [9] [µM] | AC50 (Cannabinoid receptor 1) [µM] | AC50 (Melanocortin receptor 4) [µM] | AC50 (Glucocorticoid receptor) [µM] |
| --- | --- | --- | --- | --- | --- | --- | --- | --- | --- | --- | --- | --- | --- | --- | --- |
| C=CCSCC1Nc2cc(Cl)c(S(N)(=O)=O)cc2S(=O)(=O)N1 (stereo not given) [ALTHIAZIDE] | > 30 | > 30 | > 30 | > 30 | > 30 | > 30 | > 30 | > 30 | > 30 |  |  |  |  |  |  |
| COc1cc2c(cc1OC)CC(=O)N(CCCN(C)C[C@H]1Cc3cc(OC)c(OC)cc31)CC2 [IVABRADINE] | > 30 | 3.35 | 2.61 | > 30 | > 30 | > 30 | > 30 | > 30 | > 30 |  |  |  |  |  |  |
| C[C@H](Cc1cc2c(c(C(N)=O)c1)N(CCCO)CC2)NCCOc1ccccc1OCC(F)(F)F [SILODOSIN] | 1.28 | > 30 | 0.0483 | > 30 | > 30 | > 30 | > 30 | > 30 | 15 | 10 | 0.0029 |  |  |  |  |
| COc1cc(N2CCC(N3CCN(C)CC3)CC2)ccc1Nc1ncc(Cl)c(Nc2ccccc2P(C)(C)=O)n1 [BRIGATINIB] | > 30 | > 30 | > 30 | > 30 | 2.53 | 0.183 | > 30 | > 30 | 26.3 |  |  |  |  |  |  |
| Cc1cc(NC(=O)C2=C(O)c3ccccc3S(=O)(=O)N2C)no1 [ISOXICAM] | > 30 | > 30 | > 30 | > 30 | > 30 | 24.4 | > 30 | > 30 | > 30 |  |  |  |  |  |  |
| c1ccc2c(c1)CCc1ccccc1N2C1CN2CCC1CC2 (stereo not given) [QUINUPRAMINE] | 13.2 | 0.0329 | 6.47 | > 30 | > 30 | > 30 | > 30 | > 30 | > 30 |  |  |  |  |  |  |
| CN1C(=O)/C(=N\NC(N)=S)c2ccccc21 [METHISAZONE] | > 30 | > 30 | > 30 | > 30 | > 30 | > 10 | > 3 | > 10 | > 30 |  |  |  |  |  |  |
| NC(=O)OCC(O)COc1ccc(Cl)cc1 (stereo not given) [CHLORPHENESIN CARBAMATE] | > 30 | > 30 | > 30 | > 30 | > 30 | > 30 | > 30 | > 30 | > 30 |  |  |  |  |  |  |
| CCOC(=O)[C@H](CCc1ccccc1)N[C@@H](C)C(=O)N(CC(=O)O)C1Cc2ccccc2C1 | > 30 | > 30 | > 30 | > 30 | > 30 | > 30 | > 30 | > 30 | > 30 |  |  |  |  |  |  |
| CN1CCN(C2=Nc3ccccc3Oc3ccc(Cl)cc32)CC1 [LOXAPINE] |  |  | 0.019 | > 30 | > 30 | > 30 | > 30 | > 30 | > 30 |  | 0.44 | 8.8 | > 10 | > 30 | > 30 |
